Reference: the supplement of paper PMC10307832

What was measured:
Experiment in all cases: relative viability (nuclei count vs DMSO), 5 days (fraction); higher = more cells survive
[1] = tested on: LU99A
How it was run: (§1)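 Relative viability divides the nuclei count in treated wells by that in vehicle wells. Lung cancer cell lines were seeded in 1536-well plates, dosed by pin tool the next day, and fixed and stained after 5 days in one step with final 0.05% Triton X-100, 1% formaldehyde and 1 ug/ml Hoechst. Dosing was a single drug or a fixed anchor-drug dose plus five library-drug doses (not always all listed) in √10 steps, and values are medians of duplicate plates imaged at 4×.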

[2] = tested on: NCI-H1355
How it was run: as §1

[3] = tested on: EPLC-272H
How it was run: as §1

[4] = tested on: HCC-827
How it was run: as §1

[5] = tested on: UMC-11
How it was run: as §1

[6] = tested on: PC-3 [JPC-3]
How it was run: as §1

[7] = tested on: LK-2
How it was run: as §1

[8] = tested on: SW 1573
How it was run: as §1

[9] = tested on: H3255
How it was run: as §1

[10] = tested on: SK-LU-1
How it was run: as §1

[11] = tested on: NCI-H441
How it was run: as §1

[12] = tested on: NCI-H2405
How it was run: as §1

[13] = tested on: LXF-289
How it was run: as §1

[14] = tested on: NCI-H2228
How it was run: as §1

[15] = tested on: NCI-H1993
How it was run: as §1

[16] = tested on: LCLC-97TM1
How it was run: as §1

[17] = tested on: HOP-62
How it was run: as §1

[18] = tested on: EKVX
How it was run: as §1

[19] = tested on: NCI-H3122
How it was run: as §1

**Q.** Which relative viability ([1]; first compound 0.002 µM) does the source give for CCNC(=O)c1noc(-c2cc(C(C)C)c(O)cc2O)c1-c1ccc(CN2CCOCC2)cc1 [Luminespib] + C[C@]1(O)C[C@@H](c2nc(-c3ccc4ccc(-c5ccccc5)nc4c3)c3c(N)nccn32)C1 [Linsitinib] (partner 1 µM) here?
**A.** 0.574

**Q.** And the relative viability ([1]; first compound 0.006325 µM)?
**A.** 0.486

**Q.** What about the relative viability ([1]; first compound 0.02 µM) of the same compound?
**A.** 0.357

**Q.** And the relative viability ([1]; first compound 0.06325 µM)?
**A.** 0.172

**Q.** What about the relative viability ([1]; first compound 0.2 µM) of the same compound?
**A.** 0.144

**Q.** And the relative viability ([2]; first compound 0.002 µM)?
**A.** 0.903

**Q.** And the relative viability ([2]; first compound 0.006325 µM)?
**A.** 0.785

**Q.** And the relative viability ([2]; first compound 0.02 µM)?
**A.** 0.425

**Q.** And the relative viability ([2]; first compound 0.06325 µM)?
**A.** 0.763

**Q.** What about the relative viability ([2]; first compound 0.2 µM) of the same compound?
**A.** 0.81

**Q.** And the relative viability ([3]; first compound 0.006325 µM)?
**A.** 1.07

**Q.** And the relative viability ([3]; first compound 0.02 µM)?
**A.** 0.727

**Q.** What about the relative viability ([3]; first compound 0.06325 µM) of the same compound?
**A.** 1.11

**Q.** And the relative viability ([3]; first compound 0.2 µM)?
**A.** 1.14

**Q.** And the relative viability ([4]; first compound 0.002 µM)?
**A.** 0.922

**Q.** And the relative viability ([4]; first compound 0.006325 µM)?
**A.** 0.925

**Q.** And the relative viability ([4]; first compound 0.02 µM)?
**A.** 0.937

**Q.** And the relative viability ([4]; first compound 0.06325 µM)?
**A.** 0.974

**Q.** And the relative viability ([4]; first compound 0.2 µM)?
**A.** 1.02

**Q.** What about the relative viability ([5]; first compound 0.002 µM) of the same compound?
**A.** 0.997

**Q.** What about the relative viability ([5]; first compound 0.006325 µM) of the same compound?
**A.** 0.993

**Q.** And the relative viability ([5]; first compound 0.02 µM)?
**A.** 0.962

**Q.** And the relative viability ([5]; first compound 0.06325 µM)?
**A.** 0.648

**Q.** What about the relative viability ([5]; first compound 0.2 µM) of the same compound?
**A.** 0.181

**Q.** And the relative viability ([6]; first compound 0.002 µM)?
**A.** 0.963

**Q.** What about the relative viability ([6]; first compound 0.006325 µM) of the same compound?
**A.** 0.939

**Q.** What about the relative viability ([6]; first compound 0.02 µM) of the same compound?
**A.** 0.991

**Q.** And the relative viability ([6]; first compound 0.06325 µM)?
**A.** 0.997

**Q.** What about the relative viability ([6]; first compound 0.2 µM) of the same compound?
**A.** 0.897

**Q.** And the relative viability ([7]; first compound 0.002 µM)?
**A.** 0.747

**Q.** What about the relative viability ([7]; first compound 0.006325 µM) of the same compound?
**A.** 0.522

**Q.** What about the relative viability ([7]; first compound 0.02 µM) of the same compound?
**A.** 0.455

**Q.** And the relative viability ([7]; first compound 0.06325 µM)?
**A.** 0.301

**Q.** And the relative viability ([7]; first compound 0.2 µM)?
**A.** 0.109

**Q.** What about the relative viability ([8]; first compound 0.002 µM) of the same compound?
**A.** 0.88

**Q.** And the relative viability ([8]; first compound 0.006325 µM)?
**A.** 0.594

**Q.** And the relative viability ([8]; first compound 0.02 µM)?
**A.** 0.707

**Q.** What about the relative viability ([8]; first compound 0.06325 µM) of the same compound?
**A.** 0.423

**Q.** And the relative viability ([8]; first compound 0.2 µM)?
**A.** 0.123

**Q.** And the relative viability ([9]; first compound 0.002 µM)?
**A.** 0.929

**Q.** And the relative viability ([9]; first compound 0.006325 µM)?
**A.** 0.868

**Q.** What about the relative viability ([9]; first compound 0.02 µM) of the same compound?
**A.** 0.65

**Q.** What about the relative viability ([9]; first compound 0.06325 µM) of the same compound?
**A.** 0.885

**Q.** And the relative viability ([9]; first compound 0.2 µM)?
**A.** 0.228

**Q.** And the relative viability ([10]; first compound 0.002 µM)?
**A.** 1.02

**Q.** What about the relative viability ([10]; first compound 0.006325 µM) of the same compound?
**A.** 0.89

**Q.** And the relative viability ([10]; first compound 0.02 µM)?
**A.** 0.474

**Q.** What about the relative viability ([10]; first compound 0.06325 µM) of the same compound?
**A.** 0.193

**Q.** And the relative viability ([10]; first compound 0.2 µM)?
**A.** 0.178

**Q.** What about the relative viability ([11]; first compound 0.002 µM) of the same compound?
**A.** 0.797

**Q.** And the relative viability ([11]; first compound 0.006325 µM)?
**A.** 0.5

**Q.** What about the relative viability ([11]; first compound 0.02 µM) of the same compound?
**A.** 0.485

**Q.** What about the relative viability ([11]; first compound 0.06325 µM) of the same compound?
**A.** 0.108

**Q.** And the relative viability ([11]; first compound 0.2 µM)?
**A.** 0.0934

**Q.** What about the relative viability ([12]; first compound 0.002 µM) of the same compound?
**A.** 1.01

**Q.** And the relative viability ([12]; first compound 0.006325 µM)?
**A.** 0.721

**Q.** What about the relative viability ([12]; first compound 0.02 µM) of the same compound?
**A.** 0.613

**Q.** What about the relative viability ([12]; first compound 0.06325 µM) of the same compound?
**A.** 0.254

**Q.** And the relative viability ([12]; first compound 0.2 µM)?
**A.** 0.182

**Q.** And the relative viability ([13]; first compound 0.002 µM)?
**A.** 0.952

**Q.** What about the relative viability ([13]; first compound 0.006325 µM) of the same compound?
**A.** 0.879

**Q.** What about the relative viability ([13]; first compound 0.02 µM) of the same compound?
**A.** 1.12

**Q.** And the relative viability ([13]; first compound 0.06325 µM)?
**A.** 0.711

**Q.** And the relative viability ([13]; first compound 0.2 µM)?
**A.** 0.151

**Q.** And the relative viability ([14]; first compound 0.002 µM)?
**A.** 0.612

**Q.** And the relative viability ([14]; first compound 0.006325 µM)?
**A.** 0.629

**Q.** And the relative viability ([14]; first compound 0.02 µM)?
**A.** 0.203

**Q.** What about the relative viability ([14]; first compound 0.06325 µM) of the same compound?
**A.** 0.168

**Q.** What about the relative viability ([14]; first compound 0.2 µM) of the same compound?
**A.** 0.199

**Q.** What about the relative viability ([15]; first compound 0.002 µM) of the same compound?
**A.** 0.829

**Q.** What about the relative viability ([15]; first compound 0.006325 µM) of the same compound?
**A.** 0.735

**Q.** And the relative viability ([15]; first compound 0.02 µM)?
**A.** 0.678

**Q.** What about the relative viability ([15]; first compound 0.06325 µM) of the same compound?
**A.** 0.534

**Q.** What about the relative viability ([15]; first compound 0.2 µM) of the same compound?
**A.** 0.576

**Q.** What about the relative viability ([16]; first compound 0.002 µM) of the same compound?
**A.** 0.213

**Q.** And the relative viability ([16]; first compound 0.006325 µM)?
**A.** 0.199

**Q.** And the relative viability ([16]; first compound 0.02 µM)?
**A.** 0.154

**Q.** And the relative viability ([16]; first compound 0.06325 µM)?
**A.** 0.174

**Q.** What about the relative viability ([16]; first compound 0.2 µM) of the same compound?
**A.** 0.192

**Q.** And the relative viability ([17]; first compound 0.002 µM)?
**A.** 1.07

**Q.** And the relative viability ([17]; first compound 0.006325 µM)?
**A.** 0.958

**Q.** And the relative viability ([17]; first compound 0.02 µM)?
**A.** 0.945

**Q.** What about the relative viability ([17]; first compound 0.06325 µM) of the same compound?
**A.** 1.12

**Q.** What about the relative viability ([17]; first compound 0.2 µM) of the same compound?
**A.** 0.934

**Q.** And the relative viability ([18]; first compound 0.002 µM)?
**A.** 1

**Q.** And the relative viability ([18]; first compound 0.006325 µM)?
**A.** 0.989

**Q.** And the relative viability ([18]; first compound 0.02 µM)?
**A.** 0.721

**Q.** And the relative viability ([18]; first compound 0.06325 µM)?
**A.** 0.779

**Q.** What about the relative viability ([18]; first compound 0.2 µM) of the same compound?
**A.** 0.179

**Q.** And the relative viability ([19]; first compound 0.002 µM)?
**A.** 0.936

**Q.** And the relative viability ([19]; first compound 0.006325 µM)?
**A.** 0.973

**Q.** What about the relative viability ([19]; first compound 0.02 µM) of the same compound?
**A.** 0.945

**Q.** What about the relative viability ([19]; first compound 0.06325 µM) of the same compound?
**A.** 0.172

**Q.** What about the relative viability ([19]; first compound 0.2 µM) of the same compound?
**A.** 0.146
